# How the values were obtained:
# [1] = biological target: Coagulation factor XIa (Homo sapiens (Human), UniProt P03951); test: Factor XIa Assay; type: biochemical; conditions: human factor XIa 0.04 nM, substrate GPR-AFC, 30 min pre-incubation at 25° C., pH 7.4; read-out: FXIa IC50
# [2] = biological target: Human plasma kallikrein (Homo sapiens (Human), UniProt P03952); test: Plasma Kallikrein Assay; type: biochemical; conditions: purified Human plasma kallikrein 0.5 nM, substrate Acetyl-K-P-R-AFC, pH 7.4; read-out: PKal IC50
# Method in brief: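 Purified human plasma kallikrein (0.5 nM) was tested in 50 mM HEPES pH 7.4 with 150 mM NaCl, 5 mM CaCl2 and 0.1% PEG 8000, using Acetyl-K-P-R-AFC substrate at a final concentration ≤0.2 Km after enzyme–inhibitor equilibration. Initial-rate fluorescence was read at 405/510 nm. IC50 came from a four-parameter fit, and Ki from Cheng–Prusoff.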
# Human plasma kallikrein, sequence (P03952 391-638 limits assumed): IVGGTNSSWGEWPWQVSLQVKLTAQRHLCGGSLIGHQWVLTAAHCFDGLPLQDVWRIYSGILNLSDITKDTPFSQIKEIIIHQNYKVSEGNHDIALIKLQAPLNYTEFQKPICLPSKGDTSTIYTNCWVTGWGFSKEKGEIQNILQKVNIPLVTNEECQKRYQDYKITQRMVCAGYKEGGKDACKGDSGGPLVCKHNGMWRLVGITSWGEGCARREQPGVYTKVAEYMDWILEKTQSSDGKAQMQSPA
# Human plasma kallikrein, sequence (P03952 20-390 partner limits assumed): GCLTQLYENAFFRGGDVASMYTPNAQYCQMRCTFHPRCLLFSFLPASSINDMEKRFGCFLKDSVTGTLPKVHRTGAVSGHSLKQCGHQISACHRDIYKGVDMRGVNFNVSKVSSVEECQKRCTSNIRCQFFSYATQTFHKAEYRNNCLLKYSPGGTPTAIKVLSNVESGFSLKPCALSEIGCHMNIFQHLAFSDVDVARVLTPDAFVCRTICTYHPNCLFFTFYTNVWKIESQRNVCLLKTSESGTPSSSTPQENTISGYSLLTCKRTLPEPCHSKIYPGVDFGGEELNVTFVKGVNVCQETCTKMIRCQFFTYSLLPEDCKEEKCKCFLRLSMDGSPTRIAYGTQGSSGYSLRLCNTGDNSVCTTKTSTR
# Coagulation factor XIa, sequence (P03951 388-625 limits assumed): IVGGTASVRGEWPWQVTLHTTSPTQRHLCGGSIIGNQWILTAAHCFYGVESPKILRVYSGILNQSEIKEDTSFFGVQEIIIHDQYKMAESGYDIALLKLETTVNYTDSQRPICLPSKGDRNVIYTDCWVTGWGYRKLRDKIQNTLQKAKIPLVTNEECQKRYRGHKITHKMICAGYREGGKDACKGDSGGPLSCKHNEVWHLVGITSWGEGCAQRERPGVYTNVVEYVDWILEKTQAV
# Coagulation factor XIa, sequence (P03951 19-387 partner limits assumed): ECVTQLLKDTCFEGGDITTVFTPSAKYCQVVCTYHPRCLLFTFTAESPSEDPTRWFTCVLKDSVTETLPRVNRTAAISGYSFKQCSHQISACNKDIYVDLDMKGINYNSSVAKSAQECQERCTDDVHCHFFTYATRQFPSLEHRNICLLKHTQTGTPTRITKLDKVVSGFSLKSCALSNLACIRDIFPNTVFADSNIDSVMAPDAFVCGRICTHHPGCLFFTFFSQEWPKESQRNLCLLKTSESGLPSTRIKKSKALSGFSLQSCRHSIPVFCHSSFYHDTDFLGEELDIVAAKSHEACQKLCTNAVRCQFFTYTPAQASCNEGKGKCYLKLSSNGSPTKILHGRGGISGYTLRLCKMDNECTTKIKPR
SMILES,IC50 [1] [µM],IC50 [2] [µM]
"O=C1Nc2ccc(Cl)c(F)c2[C@]2(CCN(c3cncc(C(=O)NCc4ccc(N5CC6CC6C5)nc4)n3)C2)O1 (stereo partly drawn) [Example 40, N-((6-(3-Azabicyclo[3.1.0]hexan-3-yl)pyridin-3-yl)methyl)-6-((S)-6-chloro-5-fluoro-2-oxo-1,2-dihydrospiro[benzo[d][1,3]oxazine-4,3′-pyrrolidin]-1′-yl)pyrazine-2-carboxamide]",10,0.0186
"CCC(C)NCc1ccc(CNC(=O)c2cnnc(N3CC[C@]4(C3)OC(=O)Nc3ccc(Cl)c(F)c34)c2)cc1 (stereo partly drawn) [Example 45, N-(4-((sec-Butylamino)methyl)benzyl)-6-((S)-6-chloro-5-fluoro-2-oxo-1,2-dihydrospiro[benzo[d][1,3]oxazine-4,3′-pyrrolidin]-1′-yl)pyridazine-4-carboxamide]",10,0.0158
"Cc1cnn(Cc2ccc(CNC(=O)c3cncc(N4CC[C@]5(C4)OC(=O)Nc4ccc(Cl)c(F)c45)n3)cn2)c1 [Example 21, (S)-6-(6-Chloro-5-fluoro-2-oxo-1,2-dihydrospiro[benzo[d][1,3]oxazine-4,3′-pyrrolidin]-1′-yl)-N-((6-((4-methyl-1H-pyrazol-1-yl)methyl)pyridin-3-yl)methyl)pyrazine-2-carboxamide]",10,0.0023
"CN1CC(F)(F)C[C@H]1c1ccc(CNC(=O)c2cnnc(N3CCC4(C3)OC(=O)Nc3ccc(Cl)c(F)c34)c2)cc1 (stereo partly drawn) [Example 12, (S)-6-(6-Chloro-5-fluoro-2-oxo-1,2-dihydrospiro[benzo[d][1,3]oxazine-4,3′-pyrrolidin]-1′-yl)-N-(4-(4,4-difluoro-1-methylpyrrolidin-2-yl)benzyl)pyridazine-4-carboxamide]",10,0.0396
"Cc1cnn(Cc2ccc(CNC(=O)c3cc(N4CC[C@]5(C4)OC(=O)Nc4ccc(Cl)c(F)c45)ccn3)cc2)c1 [Example 25, (S)-4-(6-Chloro-5-fluoro-2-oxo-1,2-dihydrospiro[benzo[d][1,3]oxazine-4,3′-pyrrolidin]-1′-yl)-N-(4-((4-methyl-1H-pyrazol-1-yl)methyl)benzyl)picolinamide]",10,0.0165
"Cc1cnn(Cc2ccc(CNC(=O)c3ccnc(N4CC[C@]5(C4)OC(=O)Nc4ccc(Cl)c(F)c45)n3)cc2)c1 [Example 24, (S)-2-(6-Chloro-5-fluoro-2-oxo-1,2-dihydrospiro[benzo[d][1,3]oxazine-4,3′-pyrrolidin]-1′-yl)-N-(4-((4-methyl-1H-pyrazol-1-yl)methyl)benzyl)pyrimidine-4-carboxamide]",10,0.0136

# — US20240190892A1, “PLASMA KALLIKREIN INHIBITORS” (Merck Sharp & Dohme LLC, priority 2021, published 2024)
